Data: ChEMBL document CHEMBL2074245, “Valacyclovir: a substrate for the intestinal and renal peptide transporters PEPT1 and PEPT2” (Biochem Biophys Res Commun, 1998)

Tests used:
Format in all cases: functional, cell-based
[1] = target: T1, Solute carrier family 15 member 2 (Rattus norvegicus, UniProt Q63424); assay: TP_TRANSPORTER: inhibition of Gly-Sar uptake in SKPT cells
T1 sequence (Q63424 whole entry): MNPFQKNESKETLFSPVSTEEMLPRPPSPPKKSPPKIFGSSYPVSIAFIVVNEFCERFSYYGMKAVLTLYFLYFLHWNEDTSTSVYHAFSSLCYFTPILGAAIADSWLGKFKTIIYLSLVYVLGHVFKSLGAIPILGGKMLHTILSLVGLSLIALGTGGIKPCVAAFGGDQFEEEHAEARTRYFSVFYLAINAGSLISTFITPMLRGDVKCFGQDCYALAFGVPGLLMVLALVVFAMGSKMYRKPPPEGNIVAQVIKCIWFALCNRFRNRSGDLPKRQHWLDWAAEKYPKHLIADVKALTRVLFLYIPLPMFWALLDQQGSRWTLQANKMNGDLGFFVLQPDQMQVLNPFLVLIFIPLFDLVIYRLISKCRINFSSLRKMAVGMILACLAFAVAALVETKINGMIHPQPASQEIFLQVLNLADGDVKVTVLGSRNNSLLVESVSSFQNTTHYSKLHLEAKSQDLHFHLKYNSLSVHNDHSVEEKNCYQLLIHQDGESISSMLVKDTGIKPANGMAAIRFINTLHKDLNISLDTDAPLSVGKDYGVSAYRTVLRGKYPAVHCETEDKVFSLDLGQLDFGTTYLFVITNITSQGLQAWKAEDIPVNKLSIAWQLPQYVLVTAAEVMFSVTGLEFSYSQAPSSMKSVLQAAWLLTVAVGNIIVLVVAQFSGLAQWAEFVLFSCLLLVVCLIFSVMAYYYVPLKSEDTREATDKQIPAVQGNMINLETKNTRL

[2] = target: T1, Solute carrier family 15 member 2; assay: TP_TRANSPORTER: inhibition of Gly-Sar uptake in PEPT2-expressing HeLa cells
[3] = target: T2, Solute carrier family 15 member 1 (Homo sapiens, UniProt P46059); assay: TP_TRANSPORTER: inhibition of Gly-Sar uptake in PEPT1-expressing HeLa cells
T2 sequence (P46059 whole entry): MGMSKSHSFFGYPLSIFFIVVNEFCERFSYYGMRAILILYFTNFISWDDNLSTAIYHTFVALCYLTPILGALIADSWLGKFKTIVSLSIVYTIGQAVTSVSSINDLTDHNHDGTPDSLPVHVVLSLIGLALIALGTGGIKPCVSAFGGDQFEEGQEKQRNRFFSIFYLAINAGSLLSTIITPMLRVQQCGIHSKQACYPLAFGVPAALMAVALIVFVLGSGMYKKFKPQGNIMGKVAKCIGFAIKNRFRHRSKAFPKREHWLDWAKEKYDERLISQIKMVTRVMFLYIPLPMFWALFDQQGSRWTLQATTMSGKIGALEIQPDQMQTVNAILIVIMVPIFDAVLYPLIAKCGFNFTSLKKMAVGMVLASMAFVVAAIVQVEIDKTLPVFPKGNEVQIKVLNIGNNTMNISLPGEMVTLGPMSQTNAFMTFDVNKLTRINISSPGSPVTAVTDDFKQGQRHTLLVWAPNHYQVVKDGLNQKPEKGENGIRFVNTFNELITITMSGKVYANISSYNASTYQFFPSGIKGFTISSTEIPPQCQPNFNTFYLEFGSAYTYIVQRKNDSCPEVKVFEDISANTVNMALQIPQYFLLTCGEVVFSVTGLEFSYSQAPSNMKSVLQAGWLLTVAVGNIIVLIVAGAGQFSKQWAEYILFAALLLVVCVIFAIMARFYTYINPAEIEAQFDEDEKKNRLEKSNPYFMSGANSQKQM

[4] = target: T2, Solute carrier family 15 member 1; assay: TP_TRANSPORTER: inhibition of Gly-Sar uptake in Caco-2 cells
[5] = substrate: CN(CC(=O)O)C(=O)CN; assay: TP_TRANSPORTER: uptake in PEPT1-expressing HeLa cells
[6] = substrate: CN(CC(=O)O)C(=O)CN; assay: TP_TRANSPORTER: uptake in Caco-2 cells
[7] = substrate: CN(CC(=O)O)C(=O)CN; assay: TP_TRANSPORTER: uptake in SKPT cells
[8] = substrate: CN(CC(=O)O)C(=O)CN; assay: TP_TRANSPORTER: uptake in PEPT2-expressing HeLa cells

Molecule: CC(C)[C@H](N)C(=O)OCCOCn1cnc2c(=O)[nH]c(N)nc21 [VALACYCLOVIR]
- Ki [1]: 170 µM
- Ki [2]: 390 µM
- Ki [3]: 740 µM
- Ki [4]: 490 µM

B1: Solute carrier family 15 member 1 (Homo sapiens), P46059 (protein)
chain: MGMSKSHSFFGYPLSIFFIVVNEFCERFSYYGMRAILILYFTNFISWDDNLSTAIYHTFVALCYLTPILGALIADSWLGKFKTIVSLSIVYTIGQAVTSVSSINDLTDHNHDGTPDSLPVHVVLSLIGLALIALGTGGIKPCVSAFGGDQFEEGQEKQRNRFFSIFYLAINAGSLLSTIITPMLRVQQCGIHSKQACYPLAFGVPAALMAVALIVFVLGSGMYKKFKPQGNIMGKVAKCIGFAIKNRFRHRSKAFPKREHWLDWAKEKYDERLISQIKMVTRVMFLYIPLPMFWALFDQQGSRWTLQATTMSGKIGALEIQPDQMQTVNAILIVIMVPIFDAVLYPLIAKCGFNFTSLKKMAVGMVLASMAFVVAAIVQVEIDKTLPVFPKGNEVQIKVLNIGNNTMNISLPGEMVTLGPMSQTNAFMTFDVNKLTRINISSPGSPVTAVTDDFKQGQRHTLLVWAPNHYQVVKDGLNQKPEKGENGIRFVNTFNELITITMSGKVYANISSYNASTYQFFPSGIKGFTISSTEIPPQCQPNFNTFYLEFGSAYTYIVQRKNDSCPEVKVFEDISANTVNMALQIPQYFLLTCGEVVFSVTGLEFSYSQAPSNMKSVLQAGWLLTVAVGNIIVLIVAGAGQFSKQWAEYILFAALLLVVCVIFAIMARFYTYINPAEIEAQFDEDEKKNRLEKSNPYFMSGANSQKQM
- Km [5]: 450 µM
- Km [6]: 510 µM

B2: Solute carrier family 15 member 2 (Rattus norvegicus), Q63424 (protein)
chain: MNPFQKNESKETLFSPVSTEEMLPRPPSPPKKSPPKIFGSSYPVSIAFIVVNEFCERFSYYGMKAVLTLYFLYFLHWNEDTSTSVYHAFSSLCYFTPILGAAIADSWLGKFKTIIYLSLVYVLGHVFKSLGAIPILGGKMLHTILSLVGLSLIALGTGGIKPCVAAFGGDQFEEEHAEARTRYFSVFYLAINAGSLISTFITPMLRGDVKCFGQDCYALAFGVPGLLMVLALVVFAMGSKMYRKPPPEGNIVAQVIKCIWFALCNRFRNRSGDLPKRQHWLDWAAEKYPKHLIADVKALTRVLFLYIPLPMFWALLDQQGSRWTLQANKMNGDLGFFVLQPDQMQVLNPFLVLIFIPLFDLVIYRLISKCRINFSSLRKMAVGMILACLAFAVAALVETKINGMIHPQPASQEIFLQVLNLADGDVKVTVLGSRNNSLLVESVSSFQNTTHYSKLHLEAKSQDLHFHLKYNSLSVHNDHSVEEKNCYQLLIHQDGESISSMLVKDTGIKPANGMAAIRFINTLHKDLNISLDTDAPLSVGKDYGVSAYRTVLRGKYPAVHCETEDKVFSLDLGQLDFGTTYLFVITNITSQGLQAWKAEDIPVNKLSIAWQLPQYVLVTAAEVMFSVTGLEFSYSQAPSSMKSVLQAAWLLTVAVGNIIVLVVAQFSGLAQWAEFVLFSCLLLVVCLIFSVMAYYYVPLKSEDTREATDKQIPAVQGNMINLETKNTRL
- Km [7]: 67 µM
- Km [8]: 70 µM
